These results are taken from patent publication US20240228499A1, “MASP-2 INHIBITORS AND METHODS OF USE” (Omeros Corporation, priority 2022, published 2024).

The structures appear in SMILES notation. Some results are limits rather than exact numbers.

A word on the IC50: it is the concentration at which inhibition is half-maximal. The term Ki denotes the equilibrium dissociation constant of an inhibitor or competing ligand from its target.

Format in all cases: biochemical
Experiment [1] deals with Lectin Pathway Activation (LPA) in human serum. Description: Lectin pathway activation (LPA) assay in human serum, C4 deposition on mannan-coated plate. As to conditions: 1% pooled human serum, 55 minutes, room temperature. The protocol: A Microtiter ELISA plate (Nunc-Maxi Sorp; Sigma-Aldrich®, USA) was coated with mannan sourced from Saccharomyces cerevisiae (Sigma-Aldrich®, USA) in a coating buffer comprising 33.3 mM Na2CO3 and 166.67 mM NaHCO3. The plates were incubated at room temperature overnight. Subsequently, the plates were blocked with a 5% bovine serum albumin solution (Sigma-Aldrich®, USA) prepared in PBST for 2 hours at room temperature with agitation. Varying concentrations of MASP-2 inhibitors were dispensed onto the empty plate.
To perform the assay, pooled human serum was diluted to 1% in a solution of 20 mM HEPES (pH=7.4), 140 mM NaCl, and 1 mM MgCl2. Then, 40 μl of the diluted human serum was dispensed into each well of the Microtiter ELISA plate and incubated for 55 minutes at room temperature. The C4 deposition on the mannan-coated surface was stopped using an EDTA stop solution (20 mM HEPES, pH=7.4, 140 mM NaCl, and 150 mM EDTA). Subsequently, rabbit anti-Human C4c antibody (Agilent Technologies, USA) prepared in PBST was added, and the plates were incubated at room temperature for 30 minutes with agitation, then washed with PBST, and Goat anti-rabbit IgG(H+L) HRP-conjugated (Southern Biotech®, USA) was added. The plates were again incubated at room temperature for 30 minutes with agitation, and then were washed with PBST. Following this, the Amplex® UltraRed® (Thermo Fischer Sci, USA) substrate solution was added for 16 minutes, followed by the addition of the Amplex® UltraRed® stop solution. The plates' fluorescence was measured using an i3× microplate reader (Molecular Devices, USA) with excitation at 550 nm and emission at 580 nm. The raw data generated from the plate reader was exported to GraphPad Prism® (version 10.0.3), and the non-linear regression curve was generated using the 4-parameter logistic fit equation. All data are reported as pIC50 with a 95% confidence interval.

In experiment [2] the target is T1, human a-thrombin (Homo sapiens, UniProt P00734).
T1 construct: enzyme (human a-thrombin (BioPharm® Lab.)); purchased BioPharm Lab
The experiment can be described thus: Enzymatic assay for thrombin (fluorogenic peptide substrate Boc-VPR-AMC). As to conditions: room temperature, 20 mM Hepes pH 7.4, 20 min. The procedure, abridged: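 Human α-thrombin was incubated with serially diluted compound and fluorogenic substrate Boc-VPR-AMC in 20 mM Hepes pH 7.4, 140 mM NaCl, 0.1% Tween 20 at room temperature. The reaction was stopped after 20 min with 0.1 M acetic acid and fluorescence read. % activity was normalized to DMSO and no-enzyme controls, and IC50 was taken as equivalent to Ki.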

The target in experiment [3] is T2, MASP-2 (CCP1-CCP2-SP) (Homo sapiens, UniProt O00187).
T2 construct: 15 μL of Enzyme MASP-2 (CCP1-CCP2-SP) in Assay Buffer
T2 sequence (O00187 287-686 limits assumed): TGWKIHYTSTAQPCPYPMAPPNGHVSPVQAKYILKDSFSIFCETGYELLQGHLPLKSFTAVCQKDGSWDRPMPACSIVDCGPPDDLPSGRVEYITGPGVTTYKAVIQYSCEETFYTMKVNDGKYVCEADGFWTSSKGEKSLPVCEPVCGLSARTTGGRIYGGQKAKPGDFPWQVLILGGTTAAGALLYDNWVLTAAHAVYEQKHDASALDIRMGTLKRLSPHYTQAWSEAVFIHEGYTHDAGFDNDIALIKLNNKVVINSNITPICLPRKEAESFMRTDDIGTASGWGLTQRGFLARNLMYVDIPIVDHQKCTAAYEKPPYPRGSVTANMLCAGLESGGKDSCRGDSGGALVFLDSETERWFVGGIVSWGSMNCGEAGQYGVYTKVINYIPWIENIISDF
The experiment can be described thus: Enzymatic assay for MASP-2 inhibitory activity (fluorogenic substrate). As to conditions: room temperature, 20 mM Hepes pH 7.4, 20 min. The procedure, abridged: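 Human MASP-2 CCP1-CCP2-SP construct with a C2-cleavage-site fluorogenic substrate in 20 mM HEPES pH 7.4, 140 mM NaCl, 0.1% Tween 20, 20 min at room temperature before acetic acid stop. Activity normalised to DMSO and no-enzyme controls; IC50 taken as equivalent to Ki under linear conditions.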

`Cc1cc(C)cc(CNc2cnc3n(c2=O)[C@H](C(=O)NCc2cnc4[nH]cc(Cl)c4c2)CC3)c1` [Compound 18, (S)—N-((3-chloro-1H-pyrrolo[2,3-b]pyridin-5-yl)methyl)-3-((3,5-dimethylbenzyl)amino)-4-oxo-4,6,7,8-tetrahydropyrrolo[1,2-a]pyrimidine-6-carboxamide, trifluoracetate] yielded an IC50 in experiment [1] of less than 500 nM. In addition, the Ki in experiment [2] is 2500 to 10000 nM; in experiment [3], less than 500 nM.
With `Cc1nc(N)ccc1CNC(=O)[C@@H]1CCc2ncc(NCc3cccc(C#N)c3)c(=O)n21` [Compound 73, (S)-N-((6-amino-2-methylpyridin-3-yl)methyl)-3-((3-cyanobenzyl)amino)-4-oxo-4,6,7,8-tetrahydropyrrolo[1,2-a]pyrimidine-6-carboxamide], the Ki is 500 to 2500 nM in experiment [2] and less than 500 nM in experiment [3].
For `COc1cc(Cl)cc(CNc2cnc3n(c2=O)[C@H](C(=O)NCc2ccc(N)nc2C)CC3)c1` [Compound 74, (S)-N-((6-amino-2-methylpyridin-3-yl)methyl)-3-((3-chloro-5-methoxybenzyl)amino)-4-oxo-4,6,7,8-tetrahydropyrrolo[1,2-a]pyrimidine-6-carboxamide], the Ki in experiment [2] and in experiment [3] was less than 500 nM throughout.
Take `COc1cc(Cl)cc(CNc2cnc3n(c2=O)[C@@H](C(=O)N[C@H](C)c2ccc(N)nc2)CC3)c1` [Compound 77, (R)-N-((R)-1-(6-aminopyridin-3-yl)ethyl)-3-((3-chloro-5-methoxybenzyl)amino)-4-oxo-4,6,7,8-tetrahydropyrrolo[1,2-a]pyrimidine-6-carboxamide]: the Ki in experiment [2] is greater than 25000 nM; in experiment [3], less than 500 nM.
Turning to `Cc1cc(C)cc(CNc2cnc3n(c2=O)[C@@H](C(=O)NCc2ccc(N)nc2C)CC3)c1` [Compound 78], the figures for the Ki in experiment [2] and in experiment [3] were greater than 25000 nM and 2500 to 10000 nM, respectively.
`Cc1cc(C)cc(CNc2cnc3n(c2=O)[C@@H](C(=O)NCc2ccc(N)nc2)CC3)c1` [Compound 79]: the Ki is greater than 25000 nM in experiment [2] and less than 500 nM in experiment [3].
Take `Cc1nc(N)ccc1CNC(=O)[C@@H]1CCc2ncc(NCc3cccc(CC#N)c3)c(=O)n21` [Compound 80, (S)-N-((6-amino-2-methylpyridin-3-yl)methyl)-3-((3-(cyanomethyl)benzyl)amino)-4-oxo-4,6,7,8-tetrahydropyrrolo[1,2-a]pyrimidine-6-carboxamide]: the inhibitory constant (Ki) in experiment [2] was 500 to 2500 nM; in experiment [3], less than 500 nM.
In the case of `Cc1cc(Cl)cc(CNc2cnc3n(c2=O)[C@H](C(=O)N[C@@H]2CCc4nc(N)ccc42)CC3)c1` [Compound 83, (S)—N—((R)-2-amino-6,7-dihydro-5H-cyclopenta[b]pyridin-5-yl)-3-((3-chloro-5-methylbenzyl)amino)-4-oxo-4,6,7,8-tetrahydropyrrolo[1,2-a]pyrimidine-6-carboxamide], the Ki in experiment [2] and in experiment [3] was less than 500 nM each time.
As for `Nc1ccc2c(n1)CC[C@H]2NC(=O)[C@@H]1CCc2ncc(NCc3cccc(C(F)F)c3)c(=O)n21` [Compound 84, (S)-N-((R)-2-amino-6,7-dihydro-5H-cyclopenta[b]pyridin-5-yl)-3-((3-(difluoromethyl)benzyl)amino)-4-oxo-4,6,7,8-tetrahydro-pyrrolo[1,2-a]pyrimidine-6-carboxamide], the Ki in experiment [2] was 500 to 2500 nM; in experiment [3] it was less than 500 nM.
As to `Cc1cc(Cl)cc(CNc2cnc3n(c2=O)[C@H](C(=O)N[C@@H]2CCc4ncccc42)CC3)c1` [Compound 85, (S)-3-((3-chloro-5-methylbenzyl)amino)-N-((R)-6,7-dihydro-5H-cyclopenta[b]pyridin-5-yl)-4-oxo-4,6,7,8-tetrahydropyrrolo[1,2-a]pyrimidine-6-carboxamide], the Ki in experiment [2] is greater than 25000 nM; in experiment [3], less than 500 nM.
`COc1cc(Cl)cc(CNc2cnc3n(c2=O)[C@H](C(=O)N[C@@H]2CCc4nc(N)ccc42)CC3)c1` [Compound 87, (S)-N-((R)-2-amino-6,7-dihydro-5H-cyclopenta[b]pyridin-5-yl)-3-((3-chloro-5-methoxybenzyl)amino)-4-oxo-4,6,7,8-tetrahydro-pyrrolo[1,2-a]pyrimidine-6-carboxamide]: the Ki in experiment [2] and in experiment [3] was less than 500 nM each time.
Turning to `Cc1ccc(CNc2cnc3n(c2=O)[C@H](C(=O)N[C@@H]2CCc4nc(N)ccc42)CC3)cc1C#N` [Compound 88, (S)-N-((R)-2-amino-6,7-dihydro-5H-cyclopenta[b]pyridin-5-yl)-3-((3-cyano-4-methylbenzyl)amino)-4-oxo-4,6,7,8-tetrahydro-pyrrolo[1,2-a]pyrimidine-6-carboxamide], the Ki was 500 to 2500 nM in experiment [2] and less than 500 nM in experiment [3].
For `N#Cc1cc(Cl)cc(CNc2cnc3n(c2=O)[C@H](C(=O)N[C@@H]2CCc4nc(N)ccc42)CC3)c1` [Compound 89, (S)-N-((R)-2-amino-6,7-dihydro-5H-cyclopenta[b]pyridin-5-yl)-3-((3-chloro-5-cyanobenzyl)amino)-4-oxo-4,6,7,8-tetrahydro-pyrrolo[1,2-a]pyrimidine-6-carboxamide], in that order: less than 500 nM and less than 500 nM.
On to `N#CCc1cccc(CNc2cnc3n(c2=O)[C@H](C(=O)N[C@@H]2CCc4nc(N)ccc42)CC3)c1` [Compound 91, (S)-N-((R)-2-amino-6,7-dihydro-5H-cyclopenta[b]pyridin-5-yl)-3-((3-(cyanomethyl)benzyl)amino)-4-oxo-4,6,7,8-tetrahydro-pyrrolo[1,2-a]pyrimidine-6-carboxamide], for which the results for the Ki in experiment [2] and in experiment [3] were 500 to 2500 nM and less than 500 nM, respectively.
On to `Cc1c(C#N)cccc1CNc1cnc2n(c1=O)[C@H](C(=O)N[C@@H]1CCc3nc(N)ccc31)CC2` [Compound 92, (S)-N-((R)-2-amino-6,7-dihydro-5H-cyclopenta[b]pyridin-5-yl)-3-((3-cyano-2-methylbenzyl)amino)-4-oxo-4,6,7,8-tetrahydro-pyrrolo[1,2-a]pyrimidine-6-carboxamide], for which the Ki in experiment [2] is 2500 to 10000 nM; in experiment [3], less than 500 nM.
Take `N#Cc1cc(F)cc(CNc2cnc3n(c2=O)[C@H](C(=O)N[C@@H]2CCc4nc(N)ccc42)CC3)c1` [Compound 93, (S)-N-((R)-2-amino-6,7-dihydro-5H-cyclopenta[b]pyridin-5-yl)-3-((3-cyano-5-fluorobenzyl)amino)-4-oxo-4,6,7,8-tetrahydro-pyrrolo[1,2-a]pyrimidine-6-carboxamide]: the Ki in experiment [2] is 500 to 2500 nM; in experiment [3], less than 500 nM.
`Cc1cc(F)cc(CNc2cnc3n(c2=O)[C@H](C(=O)N[C@@H]2CCc4nc(N)ccc42)CC3)c1` [Compound 96]: the results for the Ki in experiment [2] and in experiment [3] were 500 to 2500 nM and less than 500 nM, respectively.
On to `C#Cc1cccc(CNc2cnc3n(c2=O)[C@H](C(=O)N[C@@H]2CCc4nc(N)ccc42)CC3)c1` [Compound 98], for which the Ki in experiment [2] and in experiment [3] was less than 500 nM throughout.
In the case of `Nc1ccc2c(n1)CC[C@H]2NC(=O)[C@@H]1CCc2ncc(NCc3ccc4c(c3)OCC4)c(=O)n21` [Compound 99], the Ki was 2500 to 10000 nM in experiment [2] and less than 500 nM in experiment [3].
Take `Nc1ccc2c(n1)CC[C@H]2NC(=O)[C@@H]1CCc2ncc(NCc3cccc(F)c3)c(=O)n21` [Compound 101]: the Ki in experiment [2] was 500 to 2500 nM; in experiment [3], less than 500 nM.
Take `Nc1ccc2c(n1)CC[C@H]2NC(=O)[C@@H]1CCc2ncc(NCc3cccc(-c4ccccc4)c3)c(=O)n21` [Compound 102]: the results for the Ki in experiment [2] and in experiment [3] were 10000 to 25000 nM and less than 500 nM, respectively.
For `Nc1ccc2c(n1)CC[C@H]2NC(=O)[C@@H]1CCc2ncc(NCc3cccc(CO)c3)c(=O)n21` [Compound 103], in that order: 2500 to 10000 nM and less than 500 nM.
On the same counts, the results for `CC(=O)c1cccc(CNc2cnc3n(c2=O)[C@H](C(=O)N[C@@H]2CCc4nc(N)ccc42)CC3)c1` [Compound 104] are 500 to 2500 nM and less than 500 nM.
Take `Cc1cc(C)cc(CNc2cnc3n(c2=O)[C@H](C(=O)N[C@@H](C)c2cc4c(s2)CNC4)CC3)c1` [Compound 107]: the Ki was greater than 25000 nM in experiment [2] and less than 500 nM in experiment [3].
